# Test results from ChEMBL document CHEMBL1201862, “PubChem BioAssay data set” (2004).
# Activity calls are given as the source filed them.
# Tests used:
# [1] = inhibitors of Vif binding to APOBEC3G peptide, primary screen, biochemical, TR-FRET, GST-Vif 1-94, biotin-A3G peptide, dose response retest (AID 1117319); type: functional;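 also: TR-FRET signal of purified GST-Vif binding a biotinylated A3G peptide; inhibitors lower the FRET signal by blocking Vif and A3G binding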
# [2] = molecular target: T1, DNA repair and recombination protein RAD54-like (Homo sapiens, UniProt Q92698); assay: inhibitors of human RAD54 branch migration, confirmation, biochemical, fluorescence, cherry-picked samples, dose series (AID 651657); type: functional
# T1 sequence (Q92698 whole entry): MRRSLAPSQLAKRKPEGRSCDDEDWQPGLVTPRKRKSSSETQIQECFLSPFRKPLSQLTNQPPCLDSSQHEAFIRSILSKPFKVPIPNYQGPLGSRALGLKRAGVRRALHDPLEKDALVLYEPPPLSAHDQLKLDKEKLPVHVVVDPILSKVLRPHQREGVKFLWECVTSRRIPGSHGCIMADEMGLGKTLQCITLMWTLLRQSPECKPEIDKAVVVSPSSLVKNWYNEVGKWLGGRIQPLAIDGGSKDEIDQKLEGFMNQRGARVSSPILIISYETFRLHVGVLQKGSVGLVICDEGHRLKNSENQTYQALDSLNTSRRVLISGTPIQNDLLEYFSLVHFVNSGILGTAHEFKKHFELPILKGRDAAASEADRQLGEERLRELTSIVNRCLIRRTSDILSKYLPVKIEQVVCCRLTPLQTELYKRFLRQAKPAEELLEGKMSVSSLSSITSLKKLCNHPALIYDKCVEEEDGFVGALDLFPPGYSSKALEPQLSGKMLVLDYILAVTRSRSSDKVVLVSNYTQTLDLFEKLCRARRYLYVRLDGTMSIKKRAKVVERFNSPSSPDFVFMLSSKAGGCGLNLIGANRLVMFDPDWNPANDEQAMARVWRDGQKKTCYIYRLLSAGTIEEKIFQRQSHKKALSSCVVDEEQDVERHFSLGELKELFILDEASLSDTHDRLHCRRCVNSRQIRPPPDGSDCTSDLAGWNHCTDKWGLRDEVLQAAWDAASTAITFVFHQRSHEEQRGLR
# [3] = molecular target: T2, Short transient receptor potential channel 4 (Mus musculus, UniProt Q9QUQ5); assay: mouse TRPC4 channel inhibitors, dose response, cell-based, HEK293 TRPC4/mu-opioid, Fluo-4 calcium (AID 434942); type: functional;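 also: potency of inhibitors blocking the TRPC4 calcium response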
# T2 sequence (Q9QUQ5 whole entry): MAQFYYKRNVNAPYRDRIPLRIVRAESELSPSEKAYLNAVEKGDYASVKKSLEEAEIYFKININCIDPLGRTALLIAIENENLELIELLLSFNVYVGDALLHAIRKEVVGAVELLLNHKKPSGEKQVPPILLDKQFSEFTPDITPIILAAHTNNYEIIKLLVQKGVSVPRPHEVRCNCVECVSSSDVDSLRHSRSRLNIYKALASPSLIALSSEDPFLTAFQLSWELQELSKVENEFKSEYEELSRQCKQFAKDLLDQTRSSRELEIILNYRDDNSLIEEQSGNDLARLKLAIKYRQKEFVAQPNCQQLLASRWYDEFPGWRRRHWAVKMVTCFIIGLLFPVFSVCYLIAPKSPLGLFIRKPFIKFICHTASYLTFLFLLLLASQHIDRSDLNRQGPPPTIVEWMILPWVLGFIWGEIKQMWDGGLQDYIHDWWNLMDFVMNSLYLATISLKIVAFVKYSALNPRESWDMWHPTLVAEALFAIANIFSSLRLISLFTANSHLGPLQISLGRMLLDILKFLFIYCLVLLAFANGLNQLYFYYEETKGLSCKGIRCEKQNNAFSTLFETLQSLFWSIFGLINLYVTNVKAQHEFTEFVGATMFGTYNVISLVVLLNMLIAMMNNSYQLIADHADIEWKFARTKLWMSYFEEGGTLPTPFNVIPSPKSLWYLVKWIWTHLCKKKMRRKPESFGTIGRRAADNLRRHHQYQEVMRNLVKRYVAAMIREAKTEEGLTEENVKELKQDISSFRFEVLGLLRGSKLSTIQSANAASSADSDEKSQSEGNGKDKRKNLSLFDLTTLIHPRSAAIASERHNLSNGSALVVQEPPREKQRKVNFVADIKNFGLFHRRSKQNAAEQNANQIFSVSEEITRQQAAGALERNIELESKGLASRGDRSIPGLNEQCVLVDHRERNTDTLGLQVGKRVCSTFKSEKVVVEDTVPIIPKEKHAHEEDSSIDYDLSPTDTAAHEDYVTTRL
# [4] = molecular target: T3, DNA repair protein RAD52 homolog (Homo sapiens, UniProt P43351); type: functional, biochemical
# T3 sequence (P43351 whole entry): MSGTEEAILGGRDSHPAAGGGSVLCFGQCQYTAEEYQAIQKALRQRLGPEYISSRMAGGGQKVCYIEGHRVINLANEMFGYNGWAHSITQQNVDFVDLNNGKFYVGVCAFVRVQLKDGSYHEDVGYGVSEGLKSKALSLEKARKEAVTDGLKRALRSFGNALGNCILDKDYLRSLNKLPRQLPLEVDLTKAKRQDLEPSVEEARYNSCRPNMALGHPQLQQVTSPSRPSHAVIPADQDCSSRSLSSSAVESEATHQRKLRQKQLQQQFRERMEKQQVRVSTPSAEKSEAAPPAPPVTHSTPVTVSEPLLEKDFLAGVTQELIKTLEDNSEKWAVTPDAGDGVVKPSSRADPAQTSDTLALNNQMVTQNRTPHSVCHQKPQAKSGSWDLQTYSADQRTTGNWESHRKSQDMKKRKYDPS
# [5] = intracellular Trypanosoma cruzi inhibitors in host cells – cell-based, plate reader, cherry-pick samples, set 3, dose response (AID 651818); type: functional;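 also: compounds incubated with infected cells for about four days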
# [6] = cytotoxicity in HEK-293T cells, dose response, cytotoxicity control for TCR NF-kB inhibitor project, luminescence, T-cell screen hits (AID 489026); type: functional, cell-based;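 also: cells exposed to compound about 14 hours before the viability readout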
# [7] = HEK293T cytotoxicity, dose response, cytotoxicity control for miR-122 modulator project, cell-based, inhibitor set, cherry-pick, set 2 (AID 720697); type: functional
# [8] = Luminescence Cell-Based Dose Response HTS to Identify Inhibitors of 5'UTR Stem-Loop Driven Prion Protein mRNA Translation in H4 Neuroglioblastoma Cells. [Related pubchem assays: 1827 (Project Summary), 1813 (Primary HTS)]; type: functional
# [9] = system: BJ; assay: cells; type: functional, cell-based; settings: Homo sapiens
# [10] = inhibitors of firefly luciferase expression or activity, dose response, H4 neuroglioma cells, luminescence (AID 1990); type: functional, cell-based
# [11] = system: INS1; assay: beta cell apoptosis inhibitors, cytokine rescue, dose response, luminescence, retest (AID 449756); type: functional, cell-based; settings: Rattus norvegicus, INS1;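 also: cell death triggered by IL-1 beta plus TNF-alpha plus IFN-gamma mixture; protective hits raise ATP signal compared with cytokine alone wells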
# [12] = cytotoxicity toward NIH3T3 fibroblasts, dose response, counter-screen, cell-based, ATP luminescence, mouse fibroblasts (AID 2010); type: functional;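 also: cells exposed to compound for about 90 hours before reading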
# [13] = molecular target: Nonstructural protein 1 (Influenza A virus, UniProt Q194T2); type: functional, Influenza A virus (A/California/07/2009(H1N1))
# [14] = inhibitors of SNCA 5'UTR-driven reporter translation, confirmation, H4 neuroglioma cells, luminescence (AID 1988); type: functional, cell-based
# [15] = system: BJ; assay: cytotoxicity toward BJ-TERT fibroblasts, dose response, cell-based, RAS-independent, luminescence (AID 1933); type: functional; settings: Homo sapiens
# [16] = system: BJ; assay: cytotoxicity toward BJ-TERT-LT-ST fibroblasts, dose response, cell-based, RAS-independent, luminescence (AID 1935); type: functional; settings: Homo sapiens;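 also: BJ fibroblasts immortalized with TERT plus LT and ST oncogenes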
# [17] = inhibitors of intracellular T. cruzi replication, confirmation, NIH3T3 host cells, beta-gal luminescence (AID 2044); type: functional, cell-based;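 also: intracellular parasites grown in NIH/3T3 mouse fibroblasts as host cells; luminescent beta-galactosidase reporter signal from transgenic T. cruzi replicating inside host cells; inhibitors lower the luminescence signal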
# [18] = cytotoxicity toward DRD oncogenic fibroblasts, dose response, cell-based, non-viral oncogenic, luminescence (AID 1934); type: functional; settings: Homo sapiens
# Nonstructural protein 1, sequence (Q194T2 whole entry): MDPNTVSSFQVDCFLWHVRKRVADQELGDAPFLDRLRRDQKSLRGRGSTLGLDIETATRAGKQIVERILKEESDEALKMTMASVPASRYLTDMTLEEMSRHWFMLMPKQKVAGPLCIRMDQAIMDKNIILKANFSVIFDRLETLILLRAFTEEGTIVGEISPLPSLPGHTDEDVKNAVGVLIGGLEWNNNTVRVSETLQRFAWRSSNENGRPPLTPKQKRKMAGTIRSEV
compound,measurement,setting,value
CC(=O)Nc1ccc(S(=O)(=O)Nc2nnc(C(C)C)s2)cc1,IC50,[1],> 100 µM (active)
CCN1CCN(c2nc(N)c([N+](=O)[O-])c(Nc3cccc(C)c3)n2)CC1,AC50,[2],12.4 µM (active)
CCOC(=O)C1(Cc2ccccc2C)CCCN(Cc2ccc(NC(C)=O)cc2)C1 (stereo not drawn),EC50,[3],3.35 µM (active)
COc1ccc(OC)c(CN2CCCC(C(=O)c3sccc3C)C2)c1 (stereo not drawn),EC50,[3],1.88 µM (active)
COc1cccc(-c2cc3nc(NCCCN(C)C)n(C)c(=O)c3s2)c1,AC50,[4],7.04 µM (active)
same,AC50,[2],30.6 µM (active)
C[C@@H]1CCCCO[C@H](CN(C)C(=O)Nc2ccc(C(F)(F)F)cc2)[C@@H](C)CN([C@H](C)CO)C(=O)c2cc(NC(=O)Nc3ccc(F)cc3)ccc2O1,AC50,[5],1.35 µM (active)
C[C@@H]1CCCCO[C@H](CN(C)Cc2ccc(C(F)(F)F)cc2)[C@@H](C)CN([C@H](C)CO)C(=O)c2cc(NS(=O)(=O)c3ccc(Cl)cc3)ccc2O1,AC50,[5],3.33 µM (active)
Cc1cc(C(=O)Nc2cccc3c2O[C@H](CN(C)Cc2ccc(C(=O)Nc4ccccc4N)cc2)[C@H](C)CN([C@H](C)CO)C3=O)n(C)n1,AC50,[5],3.15 µM (active)
C[C@H]1CN([C@@H](C)CO)C(=O)c2cc(NC(=O)Nc3ccccc3)ccc2O[C@H]1CN(C)Cc1ccc(C(=O)Nc2ccccc2N)cc1,AC50,[5],4.89 µM (active)
C[C@H](CO)N1C[C@H](C)[C@H](CN(C)C(=O)Nc2cccc3ccccc23)Oc2c(NC(=O)Nc3ccc4c(c3)OCO4)cccc2C1=O,AC50,[5],11.9 µM (active)
C[C@@H]1CCCCO[C@H](CN(C)Cc2ccc(Cl)c(Cl)c2)[C@@H](C)CN([C@H](C)CO)C(=O)c2cc(NC(=O)Nc3ccccc3)ccc2O1,AC50,[5],3.65 µM (active)
CCOC(=O)c1[nH]c(C=O)c(C(=O)OCC)c1C,IC50,[6],> 80 µM (inactive)
Cc1cc(C(=O)Nc2ccc3c(c2)C(=O)N(C)[C@H]2CC[C@H](CC(=O)N[C@@H](C)c4ccccc4)O[C@H]2CO3)no1,AC50,[7],478 nM (active)
C/C=C/c1ccc([C@H]2[C@@H](CO)N[C@@H]2CN(C(=O)c2ccccc2F)C(C)C)cc1,AC50,[7],2450 nM (active)
CN1C[C@H]2[C@@H](c3ccccc31)[C@@H](CO)N2C(=O)C1CCOCC1,AC50,[7],< 195 nM (active)
C/C(=N\NC(=O)c1ccccc1Cl)c1ccccn1,EC50,[8],6.44 µM (active)
same,EC50,[9],13.5 µM (active)
same,EC50,[10],9.67 µM (active)
same,AC50,[11],1.4 µM (active)
same,EC50,[12],5.56 µM (active)
same,IC50,[13],11.1 µM (active)
same,EC50,[14],5.67 µM (active)
same,EC50,[15],14.8 µM (active)
same,EC50,[16],12.2 µM (active)
same,EC50,[17],1.5 µM (active)
same,EC50,[18],17.5 µM (active)
COc1cc(OC)c(/C=C2\C(=O)Nc3ccccc32)c(OC)c1,IC50,[6],69.6 µM (inactive)
